Measured values from patent publication US12358932B2, “Chemical compounds” (BORAH, INC., priority 2019, dated 2025).

Target: T1, Recombinant human PDE4B (Homo sapiens, UniProt Q07343)
T1 construct: aa 305-end; GST (N); made in house; host or cells: Sf9 insect cells (baculovirus)
Experiment: PDE4B Phosphodiesterase Assay
Format: biochemical
Set-up: key to Activity Note: PDE4: The (+) symbols identify a compound of the present disclosure with the noted target activity; +*: The (*) symbols indicate preferential activity, where the greater number identifies the most preferred compounds; +**: The (*) symbols indicate preferential activity, where the greater number identifies the most preferred compounds; +***: The (*) symbols indicate preferential activity, where the greater number identifies the most preferred compounds
Conditions: compound list; + = noted target activity
Description: The assay is based on the fluorescence polarization measuring AMP/GMP production as a result of the enzyme activity by displacement of Tracer binding to the AMP/GMP antibody. • Reaction Buffer: 10 mM Tris-HCl, pH 7.5, 5 mM MgCl2, 0.01% Brij 35, 1 mM DTT and 1% DMSO. • Enzyme: Recombinant human PDE4B (Gene Accession #NM_002600; aa 305-end) was expressed by baculovirus in Sf9 insect cells using an N-terminal GST tag. Mw=78 kDa. • Substrate: 1 μM cAMP • Detection: Transcreener® AMP2/GMP2 Antibody AMP2/GMP2 AlexaFluor 633 Tracer Reaction Procedure: • 1. Prepared indicated enzyme and substrate in freshly prepared Reaction Buffer • 2. Delivered enzyme solution into the reaction well • 3. Delivered compounds in 100% DMSO into the enzyme solution by Acoustic technology (Echo550; nanoliter range), incubated for 10 min at room temperature • 4. Delivered substrate solution into the reaction well to initiate the reaction • 5. Incubated for 1 h at room temperature • 6. Added detection mixture (Tracer and antibody in the stop buffer) to stop the reaction and incubated for 90 min with gentle mixing. The fluorescence polarization was measured at Ex/Em 620/688.
Data Analysis: The FP signals were converted into nM product based on an AMP/GMP standard curve and calculated % Enzyme activity relative to DMSO control by Excel. The curve fit was performed using GraphPad prism.

T1 sequence (Q07343 305-736 limits assumed): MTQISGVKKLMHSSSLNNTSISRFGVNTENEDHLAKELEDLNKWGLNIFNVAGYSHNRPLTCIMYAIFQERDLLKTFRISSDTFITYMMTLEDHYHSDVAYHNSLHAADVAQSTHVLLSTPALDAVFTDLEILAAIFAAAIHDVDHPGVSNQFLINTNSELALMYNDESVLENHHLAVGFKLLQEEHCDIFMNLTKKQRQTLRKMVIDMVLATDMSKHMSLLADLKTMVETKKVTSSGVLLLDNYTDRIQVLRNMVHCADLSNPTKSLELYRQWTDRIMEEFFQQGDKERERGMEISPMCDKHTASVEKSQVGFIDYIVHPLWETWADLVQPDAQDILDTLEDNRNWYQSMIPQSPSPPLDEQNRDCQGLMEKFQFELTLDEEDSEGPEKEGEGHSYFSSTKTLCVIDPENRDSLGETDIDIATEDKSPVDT

| Activity Note: PDE4 | SMILES |
| --- | --- |
| + | Cc1cnc(Nc2ccc3c(c2)COB3O)nc1Nc1cccc2c1C(=O)N(CCF)C2 [2-(2-fluoroethyl)-7-((2-((1-hydroxy-1,3-dihydrobenzo[c][1,2]oxaborol-5-yl)amino)-5-methylpyrimidin-4-yl)amino)isoindolin-1-one] |
| + | CCC(CC)Nc1nc(Nc2ccc3c(c2)COB3O)ncc1C#N [2-((1-hydroxy-1,3-dihydrobenzo[c][1,2]oxaborol-5-yl)amino)-4-(pentan-3-ylamino) pyrimidine-5-carbonitrile] |
| + | Cc1cnc(Nc2ccc3c(c2)COB3O)nc1NC(CCF)CCF [5-((4-((1,5-difluoropentan-3-yl)amino)-5-methylpyrimidin-2-yl)amino)benzo[c][1,2]oxaborol-1(3H)-ol] |
| + | CCC(CO)Nc1nc(Nc2ccc3c(c2)COB3O)ncc1C (centres unmarked) [5-((4-((1-hydroxybutan-2-yl)amino)-5-methylpyrimidin-2-yl)amino)benzo[c][1,2]oxaborol-1(3H)-ol] |
| + | CCC(CCOC)Nc1nc(Nc2ccc3c(c2)COB3O)ncc1C(F)(F)F (centres unmarked) [5-((4-((1-methoxypentan-3-yl)amino)-5-(trifluoromethyl)pyrimidin-2-yl)amino)benzo[c][1,2]oxaborol-1(3H)-ol] |
| + | Cc1cnc(Nc2ccc3c(c2)COB3O)nc1NCCC1CC1 [5-((4-((2-cyclopropylethyl)amino)-5-methylpyrimidin-2-yl)amino)benzo[c][1,2]oxaborol-1(3H)-ol] |
| + | CCc1ccccc1Nc1nc(Nc2ccc3c(c2)COB3O)ncc1C [5-((4-((2-ethylphenyl)amino)-5-methylpyrimidin-2-yl)amino)benzo[c][1,2]oxaborol-1(3H)-ol] |
| + | Cc1cnc(Nc2ccc3c(c2)COB3O)nc1NC1CCOC(O)C1 (centres unmarked) [5-((4-((2-hydroxytetrahydro-2H-pyran-4-yl)amino)-5-methylpyrimidin-2-yl)amino)benzo[c][1,2]oxaborol-1(3H)-ol] |
| + | COc1ccccc1Nc1nc(Nc2ccc3c(c2)COB3O)ncc1C [5-((4-((2-methoxyphenyl)amino)-5-methylpyrimidin-2-yl)amino)benzo[c][1,2]oxaborol-1(3H)-ol] |
| + | Cc1cnc(Nc2ccc3c(c2)COB3O)nc1NCc1cccc(Cl)c1 [5-((4-((3-chlorobenzyl)amino)-5-methylpyrimidin-2-yl)amino)benzo[c][1,2]oxaborol-1(3H)-ol] |
| + | Cc1cnc(Nc2ccc3c(c2)COB3O)nc1NCc1ccc(F)cc1 [5-((4-((4-fluorobenzyl)amino)-5-methylpyrimidin-2-yl)amino)benzo[c][1,2]oxaborol-1(3H)-ol] |
| + | OB1OCc2cc(Nc3ncc(C(F)(F)F)c(NCc4ccccc4)n3)ccc21 [5-((4-(benzylamino)-5-(trifluoromethyl)pyrimidin-2-yl)amino)benzo[c][1,2]oxaborol-1(3H)-ol] |
| + | OB1OCc2cc(Nc3ncc(Cl)c(NCc4ccccc4)n3)ccc21 [5-((4-(benzylamino)-5-chloropyrimidin-2-yl)amino)benzo[c][1,2]oxaborol-1(3H)-ol] |
| + | Cc1cnc(Nc2ccc3c(c2)COB3O)nc1NCc1ccccc1 [5-((4-(benzylamino)-5-methylpyrimidin-2-yl)amino)benzo[c][1,2]oxaborol-1(3H)-ol] |
| + | OB1OCc2cc(Nc3ncc(C(F)(F)F)c(NC4CCCCC4)n3)ccc21 [5-((4-(cyclohexylamino)-5-(trifluoromethyl)pyrimidin-2-yl)amino)benzo[c][1,2]oxaborol-1(3H)-ol] |
| + | Cc1cnc(Nc2ccc3c(c2)COB3O)nc1NC1CCCCC1 [5-((4-(cyclohexylamino)-5-methylpyrimidin-2-yl)amino)benzo[c][1,2]oxaborol-1(3H)-ol] |
| + | OB1OCc2cc(Nc3nccc(NC4CCCCC4)n3)ccc21 [5-((4-(cyclohexylamino)pyrimidin-2-yl)amino)benzo[c][1,2]oxaborol-1(3H)-ol] |
| + | Cc1cnc(Nc2ccc3c(c2)COB3O)nc1OC1CCCCC1 [5-((4-(cyclohexyloxy)-5-methylpyrimidin-2-yl)amino)benzo[c][1,2]oxaborol-1(3H)-ol] |
| + | Cc1cnc(Nc2ccc3c(c2)COB3O)nc1NC1CCCC1 [5-((4-(cyclopentylamino)-5-methylpyrimidin-2-yl)amino)benzo[c][1,2]oxaborol-1(3H)-ol] |
| + | Cc1cnc(Nc2ccc3c(c2)COB3O)nc1OC1CCCC1 [5-((4-(cyclopentyloxy)-5-methylpyrimidin-2-yl)amino)benzo[c][1,2]oxaborol-1(3H)-ol] |
| + | CCCC(CC)Nc1nc(Nc2ccc3c(c2)COB3O)ncc1C(F)(F)F (centres unmarked) [5-((4-(hexan-3-ylamino)-5-(trifluoromethyl)pyrimidin-2-yl)amino)benzo[c][1,2]oxaborol-1(3H)-ol] |

More lines, now with the values behind:

| SMILES | Activity Note: PDE4 |
| --- | --- |
| CCCNc1nc(Nc2ccc3c(c2)COB3O)ncc1C=O [2-((1-hydroxy-1,3-dihydrobenzo[c][1,2]oxaborol-5-yl)amino)-4-(propylamino)pyrimidine-5-carbaldehyde] | + |
| Cc1cnc(Nc2ccc3c(c2)COB3O)nc1NC(CCO)CCO [3-((2-((1-hydroxy-1,3-dihydrobenzo[c][1,2]oxaborol-5-yl)amino)-5-methylpyrimidin-4-yl)amino)pentane-1,5-diol] | + |
| Cc1cnc(Nc2ccc3c(c2)COB3O)nc1Nc1ccccc1Cl [5-((4-((2-chlorophenyl)amino)-5-methylpyrimidin-2-yl)amino)benzo[c][1,2]oxaborol-1(3H)-ol] | + |
| OB1OCc2cc(Nc3ncc(C(F)(F)F)c(NCCC4CC4)n3)ccc21 [5-((4-((2-cyclopropylethyl)amino)-5-(trifluoromethyl)pyrimidin-2-yl)amino)benzo[c][1,2]oxaborol-1(3H)-ol] | + |
| OB1OCc2cc(Nc3ncc(F)c(NCCC4CC4)n3)ccc21 [5-((4-((2-cyclopropylethyl)amino)-5-fluoropyrimidin-2-yl)amino)benzo[c][1,2]oxaborol-1(3H)-ol] | + |
| Cc1cnc(Nc2ccc3c(c2)COB3O)nc1Nc1ccccc1F [5-((4-((2-fluorophenyl)amino)-5-methylpyrimidin-2-yl)amino)benzo[c][1,2]oxaborol-1(3H)-ol] | + |
| Cc1cnc(Nc2ccc3c(c2)COB3O)nc1Nc1cccc(CO)c1 [5-((4-((3-(hydroxymethyl)phenyl)amino)-5-methylpyrimidin-2-yl)amino)benzo[c][1,2]oxaborol-1(3H)-ol] | + |
| Cc1cnc(Nc2ccc3c(c2)COB3O)nc1NCc1cccc(F)c1 [5-((4-((3-fluorobenzyl)amino)-5-methylpyrimidin-2-yl)amino)benzo[c][1,2]oxaborol-1(3H)-ol] | + |
| Cc1cnc(Nc2ccc3c(c2)COB3O)nc1NCc1ccc(Cl)cc1 [5-((4-((4-chlorobenzyl)amino)-5-methylpyrimidin-2-yl)amino)benzo[c][1,2]oxaborol-1(3H)-ol] | + |
| OB1OCc2cc(Nc3ncc(F)c(NCc4ccccc4)n3)ccc21 [5-((4-(benzylamino)-5-fluoropyrimidin-2-yl)amino)benzo[c][1,2]oxaborol-1(3H)-ol] | + |
| Cc1cnc(Nc2ccc3c(c2)COB3O)nc1NC1CCC1 [5-((4-(cyclobutylamino)-5-methylpyrimidin-2-yl)amino)benzo[c][1,2]oxaborol-1(3H)-ol] | + |
| OB1OCc2cc(Nc3ncc(F)c(NC4CCCCC4)n3)ccc21 [5-((4-(cyclohexylamino)-5-fluoropyrimidin-2-yl)amino)benzo[c][1,2]oxaborol-1(3H)-ol] | + |
| Cc1cnc(Nc2ccc3c(c2)COB3O)nc1SC1CCCCC1 [5-((4-(cyclohexylthio)-5-methylpyrimidin-2-yl)amino)benzo[c][1,2]oxaborol-1(3H)-ol] | + |
| OB1OCc2cc(Nc3ncc(C(F)(F)F)c(NC4CCCC4)n3)ccc21 [5-((4-(cyclopentylamino)-5-(trifluoromethyl)pyrimidin-2-yl)amino)benzo[c][1,2]oxaborol-1(3H)-ol] | + |
| OB1OCc2cc(Nc3ncc(F)c(NC4CCCC4)n3)ccc21 [5-((4-(cyclopentylamino)-5-fluoropyrimidin-2-yl)amino)benzo[c][1,2]oxaborol-1(3H)-ol] | + |
| OB1OCc2cc(Nc3nccc(NC4CCCC4)n3)ccc21 [5-((4-(cyclopentylamino)pyrimidin-2-yl)amino)benzo[c][1,2]oxaborol-1(3H)-ol] | + |
| Cc1cnc(Nc2ccc3c(c2)COB3O)nc1NC1CC1 [5-((4-(cyclopropylamino)-5-methylpyrimidin-2-yl)amino)benzo[c][1,2]oxaborol-1(3H)-ol] | + |
